Experimental data as given in US11344630B2, “Methods and compositions for red-shifted chromophore substitution for optogenetic applications” (Washington University, priority 2014, dated 2022).
“Also recorded” adds a separate entry of the source. One block for each molecule: values may come before it.

How the values were obtained:
[1] = target: T1, archaerhodopsin proton pump, AR-3 (Halorubrum sodomense, UniProt P96787); conditions: cited from earlier work; for wavelength of half-maximal absorption on the red slope of the curve: AR-3 expressed in E. coli, chromophore as labelled
T1 construct: host or cells: E. coli
T1 sequence (P96787 7-258): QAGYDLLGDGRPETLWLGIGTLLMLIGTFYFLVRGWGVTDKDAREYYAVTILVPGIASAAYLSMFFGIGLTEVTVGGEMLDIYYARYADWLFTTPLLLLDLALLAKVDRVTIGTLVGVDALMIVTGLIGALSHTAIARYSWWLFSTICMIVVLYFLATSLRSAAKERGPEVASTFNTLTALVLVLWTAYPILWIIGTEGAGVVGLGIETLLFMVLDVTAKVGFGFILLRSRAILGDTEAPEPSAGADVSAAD

optogenetic actuators = conditions: replacing retinal with 3,4-didehydroretinal, in vitro; cited from earlier work
[2] = Absorbance spectra of retinoid HPLC peaks; assay type: physicochemical; conditions: predominant retinoid species of zebrafish retina extracts, reduced with sodium borohydride
From the text: (§1) FIG. 1A, FIG. 1B, FIG. 1C, FIG. 1D, FIG. 1E, FIG. 1F, FIG. 1G, FIG. 1H, FIG. 1I, FIG. 1J and FIG. 1K depict images and graphs showing that diverse species employ a vitamin A1 to vitamin A2 switch to red-shift the spectral sensitivity of their photoreceptors. (FIG. 1A) Depicts the conversion of all-trans retinol (vitamin A1) into all-trans 3,4-didehydroretinol (vitamin A2). (FIG. 1B, FIG. 1C, FIG. 1D) Depict several species that switch between the use of vitamin A1 and vitamin A2 for vision at different stages of their life cycle. (FIG. 1B) Sea lamprey; (FIG. 1C) Coho salmon; and (FIG. 1D) Northern leopard frog. (FIG. 1E, FIG. 1F, FIG. 1G, FIG. 1H) depict graphs showing that thyroid hormone treatment of adult zebrafish induces quantitative conversion of retinol into 3,4-didehydroretinol. Adult zebrafish were treated with 300 μg/liter thyroid hormone (L-thyroxine) in their water for three weeks. The retinas were then harvested, and retinoid extracts were reduced with sodium borohydride and analyzed by HPLC. (FIG. 1E) Depicts the position of peak #1 in control zebrafish. (FIG. 1F) Depicts the position of peak #2 in TH-treated zebrafish. […] Note that only vitamin A1 and its derivatives (the retinal form has been reduced to the alcohol form) are detected in the ventral RPE whereas both vitamin A1 and vitamin A2 are present in nearly equal proportions in the dorsal RPE. […]

red single cones = assay: Suction electrode recordings of red single cones from wild-type and cyp27c1 mutant fish; assay type: in vivo; conditions: cyp27c1 mutant zebrafish after thyroid hormone treatment
From the text: FIG. 11A and FIG. 11B depict graphs presenting suction electrode recordings of red single cones from wild-type and Cyp27c1 mutant fish. […] (FIG. 11A) Untreated wild-type and mutant zebrafish have similar sensitivity.
To continue to probe the effects of Cyp27c1, we generated cyp27c1 null mutant zebrafish. […] We then utilized the mutant zebrafish to identify their ability to covert retinol (A1) to 3,4-didehydroretinol (A2). […] Suction electrode recordings of red single cones from wild-type and cyp27c1 mutant fish were performed.

adult zebrafish = assay: Thyroid hormone treatment of zebrafish, retinoid content of retinas by HPLC; assay type: in vivo
From the text: as §1

Cyp27c1 transcript = assay: RNA-seq expression profiling of RPE from thyroid hormone-treated zebrafish vs vehicle-treated controls; assay type: in vivo; conditions: zebrafish treated 3 weeks with thyroid hormone vs vehicle-treated controls
From the text: FIG. 2A and FIG. 2B depict the results of RNA-seq-based expression profiling of zebrafish and bullfrog retinal pigment epithelium (RPE). (FIG. 2A) RNA-seq results comparing the expression levels of individual transcripts (shown as black circles) from RPE derived from zebrafish treated for 3 weeks with thyroid hormone and vehicle-treated controls. The location of the Cyp27c1 transcript is circled in red. (FIG. 2B) RNA-seq results comparing the expression levels of individual transcripts (shown as black circles) from dorsal and ventral bullfrog RPE. The location of the Cyp27c1 transcript is circled in red.
It has long been postulated that the conversion of retinal into 3,4-dehydroretinal in migratory fish is mediated by a ‘terminal ring dehydrogenase’^8. […] To identify the transcript encoding this enzyme, we carried out transcriptome profiling of thyroid hormone-treated fish and compared them to vehicle-treated controls. We hypothesized that the enzyme was likely to be expressed in one of three tissues: retinal pigment epithelium (which lies immediately adjacent to photoreceptors and is a known source of retinoids), retina or liver. We obtained RNA-seq data for RPE and identified an excellent candidate transcript, flj13639. This transcript encodes an ‘orphan’ member of the cytochrome P450 family of monooxygenases, Cyp27c1 (FIG. 2A). […]

Opn1mw4 = assay: RNA-seq expression profiling of RPE samples from thyroid hormone-treated zebrafish (photoreceptor transcripts); assay type: in vivo; conditions: thyroid hormone-treated 'RPE' samples vs controls
From the text: We therefore analyzed a range of photoreceptor gene transcripts in our thyroid hormone-treated ‘RPE’ and controls, and found similar levels of photoreceptor contamination between the two samples.

HEK293 cells = assay: Cyp27c1 expression in HEK293 cells incubated with retinol, retinoids by HPLC; assay type: cell-based, human; conditions: transfected HEK293 cells incubated with retinol 24 hours, vs empty vector
Description: FIG. 5A, FIG. 5B, FIG. 5C, FIG. 5D and FIG. 5E depict the results of introducing an expression construct containing the zebrafish ortholog of Cyp27c1 into HEK293 cells and incubating with retinol for 24 hours (vitamin A1). […] (FIG. 5D, FIG. 5E) depicts the HPLC profile of commercially obtained chemical standards A1 (FIG. 5D) and A2 (FIG. 5E).
Next, we determined if Cyp27c1 is sufficient to convert retinal to 3,4-didehydroretinal. We cloned a full-length zebrafish Cyp27c1 cDNA and a full-length human Cyp27c1 cDNA into a mammalian expression vector and expressed it in HEK293 cells. FIG. 3 confirms that the recombinant zebrafish and human Cyp27c1 are expressed in the HEK293 cells.

Molecule: CC1=C(/C=C/C(C)=C/C=C/C(C)=C/C=O)C(C)(C)CC=C1 [3,4-didehydroretinal]
red-shift of wavelength of half-maximal absorption ([1]; 3,4-didehydroretinal in place of retinal in AR-3): 40 nm | wavelength of half-maximal absorption on the red slope of the curve [1]: 639 nm | red-shift of action spectra (optogenetic actuators): greater than 30 nm

absorbance maximum (peak) [2]: 355 nm
Molecule: CC1=C(/C=C/C(C)=C/C=C/C(C)=C/CO)C(C)(C)CC=C1 [3,4-didehydroretinol, all-trans 3,4-didehydroretinol]

Molecule: CC1=C(/C=C/C(C)=C/C=C/C(C)=C/C=O)C(C)(C)CCC1 [retinal, all-trans retinal]
wavelength of half-maximal absorption on the red slope of the curve [1]: 599 nm

absorbance maximum (peak) [2]: 326 nm
Molecule: CC1=C(/C=C/C(C)=C/C=C/C(C)=C/CO)C(C)(C)CCC1 [retinol, all-trans retinol]

Molecule: N[C@@H](Cc1cc(I)c(Oc2cc(I)c(O)c(I)c2)c(I)c1)C(=O)O [thyroid hormone, L-thyroxine]
red-shift of red cone sensitivity (red single cones): fail to red-shift | HPLC profile of retinoids (adult zebrafish; thyroid hormone treated cyp27c1 null mutant zebrafish): only the presence of A1 | conversion of retinal into 3,4-dehydroretinal (A1 to A2) in retinas (adult zebrafish; wild-type adult zebrafish, 300 μg/liter L-thyroxine in water, three weeks, HPLC): quantitative conversion of retinal into 3,4-dehydroretinal; also recorded: conversion of A1 to A2 | Cyp27c1 transcript expression level in RPE (Cyp27c1 transcript): markedly upregulated | Opn1mw4 transcript upregulation (Opn1mw4): 4 fold

B1: zebrafish Cyp27c1: cytochrome P450, family 27, subfamily C, polypeptide 1 encoded by the cyp27c1 gene from Danio rerio (protein, UniProt A8WGA0 1-540, looked up)
Cytochrome P450 27C1: MALQSTILHMARKNLLQESCRQLLIQTHGLHKSVASGSLEIAAHSQADLKEESAVSPAEEVQKAARVKSLKEMPGPSTVANLLEFFYRDGFSRIHEIQMEHAKKYGKIFKSRFGPQFVVSIADRDMVAQVLRSESATPQRGNMESWKEYRDLRGRSTGLISAEGDEWLKMRSVLRQLIMRPRDVAVFSSDVNDVVADLVKRVKTLRSQQDDSQTVLNINDLFFKYAMEGVATILYETRLGCLENEIPKMSQEYITALHLMFSSFKTTMYAGAIPKWLRPIIPKPWEEFCSSWDGLFKFSQIHVDKRLSEIKKQMEKSEEIKGGLLTHMLVTREMNLEEIYANMTEMLLAGVDTTSFTLSWSTYLLARHPTIQQQIFEEVDRVLGGRVPTGEDVPYLPLIRGLVKETLRLFPVLPGNGRVTHDDLIVGGYLIPKGTQLALCHYSTSMDEENFPRPEEFRPDRWIRKDASDRVDNFGSIPFGYGIRSCIGRRIAELEMHLALTQLLQNFHIEVSPQTTEVHAKTHGLLCPGASINLRFTDRK
formation of 3,4-didehydroretinol (A2) from retinol (HEK293 cells): significant quantities of 3,4-didehydroretinol

B2: human Cyp27c1: cytochrome P450, family 27, subfamily C, polypeptide 1 encoded by the cyp27c1 gene from Homo sapiens (protein, UniProt Q4G0S4 81-542, looked up)
Cytochrome P450 27C1: ANLAEFFCRDGFSRIHEIQQKHTREYGKIFKSHFGPQFVVSIADRDMVAQVLRAEGAAPQRANMESWREYRDLRGRATGLISAEGEQWLKMRSVLRQRILKPKDVAIYSGEVNQVIADLIKRIYLLRSQAEDGETVTNVNDLFFKYSMEGVATILYESRLGCLENSIPQLTVEYIEALELMFSMFKTSMYAGAIPRWLRPFIPKPWREFCRSWDGLFKFSQIHVDNKLRDIQYQMDRGRRVSGGLLTYLFLSQALTLQEIYANVTEMLLAGVDTTSFTLSWTVYLLARHPEVQQTVYREIVKNLGERHVPTAADVPKVPLVRALLKETLRLFPVLPGNGRVTQEDLVIGGYLIPKGTQLALCHYATSYQDENFPRAKEFRPERWLRKGDLDRVDNFGSIPFGHGVRSCIGRRIAELEIHLVVIQLLQHFEIKTSSQTNAVHAKTHGLLTPGGPIHVRFVNRK
formation of 3,4-didehydroretinol (A2) from retinol (HEK293 cells): significant quantities of 3,4-didehydroretinol
